Results published in US9889145B2, “Methods to treat infections” (priority 2013, dated 2018).
“Also recorded” adds a separate entry of the source.

Legend:
[1] = system: Arg2; assay: Arg2 in lung and liver of Bt-infected mice (Western blot, immunohistochemical staining); format: in vivo
[2] = system: arginase; assay: Quantitative assay for urea in lungs of Bt-infected mice (indirect measurement of Arg activity); format: in vivo; settings: 80 mg/kg Celecoxib vs mock-treated Bt-infected mice
[3] = system: B. thailandensis; parameters: species or system Burkholderia thailandensis; settings: in vivo
[4] = system: PGE-2; parameters: species or system mice; settings: mouse, in vivo
[5] = system: BALB/c mice infected with B. thailandensis; settings: mouse, in vivo
[6] = system: IL-1α, IL-6 and KC; assay: IL-1α, IL-6 and KC in the lungs of Bt-infected mice; format: in vivo; settings: 80 mg/kg Celecoxib vs mock; 48 hours post-infection with Bt
[7] = system: PGE-2; format: cell-based, murine
[8] = system: B. pseudomallei; format: cell-based, Burkholderia pseudomallei
[9] = system: PGE-2; format: in vivo, mice; settings: n=2
[10] = system: NO; format: cell-based, mice
[11] = system: B. pseudomallei; format: in vivo, Burkholderia pseudomallei; settings: n=2
[12] = system: NO; format: cell-based, mice; remark: listed apart in the source
[13] = system: iNOS; format: cell-based
[14] = system: Arg2; format: cell-based, mice
[15] = daily maximum dose of 15 mg/kg in mice, cited from earlier work
[16] = system: Arg2; parameters: species or system mice; settings: mouse, in vivo, 15 mg/kg
[17] = system: Burkholderia thailandensis (Bt); format: cell-based
[18] = system: Burkholderia pseudomallei strain 1026b; format: in vivo
[19] = system: iNOS; format: cell-based, mice; settings: 4 hours
[20] = system: CD4+ T-cells; assay: IFN-γ and IL-2 production by stimulated CD4+ T-cells; format: cell-based, mice; settings: low dose (100 pg/ml) or high dose (10,000 pg/ml) PGE-2; Day 6; vs stimulated

Cc1ccc(-c2cc(C(F)(F)F)nn2-c2ccc(S(N)(=O)=O)cc2)cc1 [Celecoxib, 4-[5-(4-methylphenyl)-3-(trifluoromethyl)pyrazol-1-yl]benzenesulfonamide]
number of Arg2 positively-stained cells in lungs (immunohistochemical staining) ([1]; 80 mg/kg Celecoxib vs mock-treated Bt-infected mice): reduction in the number of Arg2 positively-stained cells | Arg2 in the lungs (Western blot) ([1]; 80 mg/kg Celecoxib vs mock-treated mice, 48 hours after pulmonary Bt infection): reduction in Arg2 in the lungs | urea levels in the lungs [2]: lower | bacterial burden in liver [3]: reduction in bacterial burdens | bacterial burden in lung [3]: reduction in bacterial burdens | bacterial burden in spleen [3]: reduction in bacterial burdens | PGE-2 in the lungs (ELISA) [4]: PGE-2 reduction | lung inflammation (histological examination) [5]: reduced | IL-1α in the lungs [6]: reduced | IL-6 in the lungs [6]: reduced | KC in the lungs [6]: reduced

CS(=O)(=O)Nc1ccc([N+](=O)[O-])cc1OC1CCCCC1 [NS398, N-[2-(cyclohexyloxy)-4-nitrophenyl]-methanesulfonamide]
PGE-2 levels in supernatants [7]: reduced | Bps intracellular survival [8]: reduction in Bps survival; also recorded: enhanced intracellular killing of B. pseudomallei | PGE-2 concentration in lung tissue [9]: reduce PGE-2 concentration in lung tissue | PGE-2 concentration in stomach tissue [9]: reduce PGE-2 concentration in stomach tissue | NO production (nitrite) [10]: higher production of NO; also recorded: increase in nitrite | growth of B. pseudomallei in lung tissue (CFU/mg) [11]: suppresses the growth of B. pseudomallei in lung tissue | growth of B. pseudomallei in stomach tissue (CFU/mg) [11]: suppresses the growth of B. pseudomallei in stomach tissue | NO production [12]: higher production of NO | iNOS expression [13]: two-fold increase in iNOS expression | Arg2 expression [14]: reduction in Arg2 expression | lung PGE-2 ([15]; previously documented pharmacological efficacy): reducing lung PGE-2 | associated toxicity ([15]; previously documented): without any associated toxicity | Arg2 expression in lungs (Western blot, densitometry) [16]: decreases | survival of intracellular Bt [17]: decrease in survival of intracellular bacteria | bacteria recovered from the lungs at the study endpoint ([18]; in vivo): No bacteria were recovered | bacteria recovered from the lungs of the two animals euthanized on day 5 and day 7 (hind leg paralysis) ([18]; in vivo): No bacteria were recovered | colonization of spleen and liver ([18]; in vivo): 20-100 cfu | first signs of illness ([18]; in vivo): ≥ 5 | lung bacteria of the one exceptional animal at the study endpoint ([18]; in vivo): 104 cfu | weight loss throughout the study ([18]; in vivo): no evidence of weight loss | survival / recovery over 10 days ([18]; n=8): appeared to have recovered from the infection; also recorded: protection against lethal pulmonary melioidosis | iNOS mRNA expression [19]: no differences in iNOS mRNA expression; also recorded: did not observe any apparent change in iNOS mRNA expression

CCCCC[C@H](O)/C=C/[C@H]1[C@H](O)CC(=O)[C@@H]1C/C=C\CCCC(=O)O [PGE-2]
NO (nitrite) levels after adding PGE-2 [10]: reduced NO levels; also recorded: reduced nitrite levels | NO levels after adding PGE-2 [12]: reduced NO levels | increase in Arg2 expression [14]: 376 fold | IFN-gamma production by stimulated CD4+ T-cells [20]: reduces | IL-2 production by stimulated CD4+ T-cells [20]: reduces | iNOS mRNA expression [19]: no differences in iNOS mRNA expression; also recorded: did not observe any apparent change in iNOS mRNA expression

N=C(NO)NCC[C@H](N)C(=O)O [nor-NOHA, nor-N^ω-hydroxy-L-arginine]
Bps intracellular survival [8]: decrease in B. pseudomallei intracellular survival | NO (nitrite) levels [10]: increase in NO levels; also recorded: increase in nitrite levels | NO levels [12]: increase in NO levels | Bt intracellular survival [17]: decrease
